In patent publication US6855730B2, “3-methylidenyl-2-indolinone modulators of protein kinase” (Sugen, Inc., priority 1998, dated 2005) one finds IC50 data, which are given here for 28 compounds.

Some results are limits rather than exact numbers.

T1 sequence (P35968 786-1356 limits assumed): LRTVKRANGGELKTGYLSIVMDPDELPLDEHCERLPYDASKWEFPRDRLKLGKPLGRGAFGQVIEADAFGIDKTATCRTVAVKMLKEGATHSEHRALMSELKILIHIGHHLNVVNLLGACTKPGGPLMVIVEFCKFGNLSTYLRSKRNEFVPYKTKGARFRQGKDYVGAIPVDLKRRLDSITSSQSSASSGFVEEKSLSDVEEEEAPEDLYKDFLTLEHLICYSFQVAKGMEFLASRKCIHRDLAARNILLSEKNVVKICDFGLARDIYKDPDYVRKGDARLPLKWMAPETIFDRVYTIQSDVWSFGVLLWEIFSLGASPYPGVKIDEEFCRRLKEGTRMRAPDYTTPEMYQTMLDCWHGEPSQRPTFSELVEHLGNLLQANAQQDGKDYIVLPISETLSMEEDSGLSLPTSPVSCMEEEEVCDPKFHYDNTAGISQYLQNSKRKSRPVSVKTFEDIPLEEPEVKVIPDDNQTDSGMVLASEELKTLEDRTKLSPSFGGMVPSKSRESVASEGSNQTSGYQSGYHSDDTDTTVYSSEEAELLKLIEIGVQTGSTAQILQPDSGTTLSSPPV

For one test, the target named is Myc-GyrB-FGFR fusion protein (Homo sapiens, UniProt P11362). Put plainly: Biochemical FGFR assay (ELISA). Conditions: read-out: bio fgfR1 IC50. Background: In an ELISA, binding on a coated surface is turned into a signal by an enzyme label.
Chain of Myc-GyrB-FGFR fusion protein (P11362 478-767 limits assumed): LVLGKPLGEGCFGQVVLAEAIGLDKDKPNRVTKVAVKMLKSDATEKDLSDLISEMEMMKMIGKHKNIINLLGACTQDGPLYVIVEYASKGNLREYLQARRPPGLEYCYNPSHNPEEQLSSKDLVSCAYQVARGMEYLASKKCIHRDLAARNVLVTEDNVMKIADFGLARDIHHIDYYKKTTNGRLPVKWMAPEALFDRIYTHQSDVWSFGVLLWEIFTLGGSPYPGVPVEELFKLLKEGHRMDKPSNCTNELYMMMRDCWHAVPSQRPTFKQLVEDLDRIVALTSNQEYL
A word on the IC50: it is the midpoint of a concentration-inhibition curve. `Cc1cc(CCC(=O)O)c(/C=C2\C(=O)Nc3cc(-c4ccc(F)cc4)ccc32)[nH]1` [Example 107, 3-{2-[6-(4-Fluorophenyl)-2-oxo-1,2-dihydroindol-3-ylidenemethyl]-5-methyl-1H-pyrrol-3-yl}propionic acid]: the IC50 was found to be 6.16 µM. On the same count and under the same terms, the result for `CCOC(=O)c1c(C)[nH]c(/C=C2\C(=O)Nc3cc(-c4ccccc4OC)ccc32)c1CCC(=O)O` [Example 110, 4-(2-Carboxyethyl)-5-[6-(2-methoxyphenyl)-2-oxo-1,2-dihydro-indol-3-ylidenemethyl]-2-methyl-1H-pyrrol-3-yl-carboxylic acid ethyl ester] reads 17.5 µM. For the compound `Cc1cccc2c1/C(=C/c1cc3ccccc3[nH]1)C(=O)N2` [Example 166, 3-(1H-indol-2-ylmethylene)-4-methyl-1,3-dihydro-indol-2-one], the IC50 was above 20 µM. Same read-out and setting: the figure for `CCOC(=O)c1c(C)[nH]c(/C=C2\C(=O)Nc3cc(-c4ccc(F)cc4)ccc32)c1CCC(=O)O` [Example 108, 4-(2-Carboxyethyl)-5-[6-(4-fluorophenyl)-2-oxo-1,2-dihydro-indol-3-ylidenemethyl]-2-methyl-1H-pyrrole-3-carboxylic acid ethyl ester] is 2.57 µM. On the same count and under the same terms, the figure for `Cc1cc(CCC(=O)O)c(/C=C2\C(=O)Nc3ccc(Cl)cc32)[nH]1` [Example 111, 3-[2-(5-Chloro-2-oxo-1,2-dihydroindol-3-ylidenemethyl)-5-methyl-1H-pyrrol-3-yl]propionic acid] is 0.47 µM; for `COc1ccccc1-c1ccc2c(c1)NC(=O)/C2=C\c1[nH]c(C)cc1CCC(=O)O` [Example 109, 3-{2-[6-(2-Methoxyphenyl)-2-oxo-1,2-dihydroindol-3-ylidenemethyl]-5-methyl-1H-pyrrol-3-yl}-propionic acid] it is above 20 µM.

Consider `O=C1Nc2ccc(Br)cc2/C1=C/c1cc2ccccc2[nH]1` [Example 165, 5-Bromo-3-(1H-indol-2-ylmethylene)-1,3-dihydro-indol-2-one], for which the IC50 was above 20 µM.

Another test has as its target T1, flkGST (Homo sapiens, UniProt P35968).
T1 construct: GST
Description: bio flkGST assay. The format is biochemical.
Settings: not given
In turn, `Cc1cc(CCC(=O)O)c(/C=C2\C(=O)Nc3cc(-c4ccc(F)cc4)ccc32)[nH]1` [Example 107, 3-{2-[6-(4-Fluorophenyl)-2-oxo-1,2-dihydroindol-3-ylidenemethyl]-5-methyl-1H-pyrrol-3-yl}propionic acid] showed an IC50 of 2.15 µM. Same read-out and setting: the result for `CCOC(=O)c1c(C)[nH]c(/C=C2\C(=O)Nc3cc(-c4ccccc4OC)ccc32)c1CCC(=O)O` [Example 110, 4-(2-Carboxyethyl)-5-[6-(2-methoxyphenyl)-2-oxo-1,2-dihydro-indol-3-ylidenemethyl]-2-methyl-1H-pyrrol-3-yl-carboxylic acid ethyl ester] reads 3.05 µM. Same read-out and setting: the result for `CCOC(=O)c1c(C)[nH]c(/C=C2\C(=O)Nc3cc(-c4ccc(F)cc4)ccc32)c1CCC(=O)O` [Example 108, 4-(2-Carboxyethyl)-5-[6-(4-fluorophenyl)-2-oxo-1,2-dihydro-indol-3-ylidenemethyl]-2-methyl-1H-pyrrole-3-carboxylic acid ethyl ester] reads 1.08 µM; that for `Cc1cc(CCC(=O)O)c(/C=C2\C(=O)Nc3ccc(Cl)cc32)[nH]1` [Example 111, 3-[2-(5-Chloro-2-oxo-1,2-dihydroindol-3-ylidenemethyl)-5-methyl-1H-pyrrol-3-yl]propionic acid], 0.43 µM. Same read-out and setting: the result for `COc1ccccc1-c1ccc2c(c1)NC(=O)/C2=C\c1[nH]c(C)cc1CCC(=O)O` [Example 109, 3-{2-[6-(2-Methoxyphenyl)-2-oxo-1,2-dihydroindol-3-ylidenemethyl]-5-methyl-1H-pyrrol-3-yl}-propionic acid] reads 2.68 µM.

In the next test the target is T2, chimeric receptor having the extra-cellular domain of EGF-R and the intra-cellular domain of Her2 (Homo sapiens, UniProt P04626).
T2 construct: fused on or other part: the same chimera
T2 sequence (P04626 676-1255 limits assumed, change not shown): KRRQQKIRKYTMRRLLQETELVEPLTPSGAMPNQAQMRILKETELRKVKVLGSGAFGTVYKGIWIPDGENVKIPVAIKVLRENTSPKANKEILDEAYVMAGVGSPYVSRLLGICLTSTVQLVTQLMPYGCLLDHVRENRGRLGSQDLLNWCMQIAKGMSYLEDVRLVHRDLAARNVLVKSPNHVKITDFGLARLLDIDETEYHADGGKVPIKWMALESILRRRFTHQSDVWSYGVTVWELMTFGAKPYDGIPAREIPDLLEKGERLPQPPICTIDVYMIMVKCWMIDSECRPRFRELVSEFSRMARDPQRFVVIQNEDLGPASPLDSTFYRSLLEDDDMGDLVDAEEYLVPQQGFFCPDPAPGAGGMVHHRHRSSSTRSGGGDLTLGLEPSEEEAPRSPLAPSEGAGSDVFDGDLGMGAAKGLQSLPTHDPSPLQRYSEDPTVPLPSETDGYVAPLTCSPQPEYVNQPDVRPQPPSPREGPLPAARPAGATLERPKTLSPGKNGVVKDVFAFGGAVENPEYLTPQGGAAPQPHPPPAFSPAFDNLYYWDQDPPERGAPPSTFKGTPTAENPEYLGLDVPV
Description: EGF-induced Her2-driven BrdU incorporation. The format is cell-based. The following applies: read-out: BrdU HER 2 driven IC50. The protocol:
The cellular/catalytic assays described herein are performed in an ELISA format. The general procedure is as follows: a compound is introduced to cells expressing the test kinase, either naturally or recombinantly, for a selected period of time after which, if the test kinase is a receptor, a ligand known to activate the receptor is added. The cells are lysed and the lysate is transferred to the wells of an ELISA plate previously coated with a specific antibody recognizing the substrate of the enzymatic phosphorylation reaction. Non-substrate components of the cell lysate are washed away and the amount of phosphorylation on the substrate is detected with an antibody specifically recognizing phosphotyrosine compared with control cells that were not contacted with a test compound. The cellular/biologic assays described herein measure the amount of DNA made in response to activation of a test kinase, which is a general measure of a proliferative response. The general procedure for this assay is as follows: a compound is introduced to cells expressing the test kinase, either naturally or recombinantly, for a selected period of time after which, if the test kinase is a receptor, a ligand known to activate the receptor is added. After incubation at least overnight, a DNA labeling reagent such as Bromodeoxyuridine (BrdU) or 3H-thymidine is added. The amount of labeled DNA is detected with either an anti-BrdU antibody or by measuring radioactivity and is compared to control cells not contacted with a test compound.
EGF-Induced Her2-Driven BrdU Incorporation
Protocol • (1) Cells-are seeded at 8000 cells/well in DMEM, 10% CS, 2mM Gln in a 96-well plate. Cells are incubated overnight at 37° C. in 5% CO2. • (2) After 24 hours, the cells are washed with PBS, and then are serum starved in serum free medium (0% CS DMEM with 0.1% BSA) for 24 hours. • (3) On day 3, ligand (EGF=2 nM, prepared in DMEM with 0.1% BSA) and test compounds are added to the cells simultaneously. The negative control wells receive serum free DMEM with 0.1% BSA only, the positive control cells receive the ligand (EGF) but no test compound. Test compounds are prepared in serum free DMEM with ligand in a 96 well plate, and serially diluted for 7 test concentrations. • (4) After 20 hours of ligand activation, diluted BrdU labeling reagent (1:100 in DMEM, 0.1% BSA) is added and the cells are incubated with BrdU (final concentration=10 μM) for 1.5 hours. • (5) After incubation with labeling reagent, the medium is removed by decanting and tapping the inverted plate on a paper towel. FixDenat solution is added (50 μl/well) and the plates are incubated at room temperature for 45 minutes on a plate shaker. • (6) The FixDenat solution is thoroughly removed by decanting and tapping the inverted plate on a paper towel. Milk is added (5% dehydrated milk in PBS, 200 μ/well) as a blocking solution and the plate is incubated for 30 minutes at room temperature on a plate shaker. • (7) The blocking solution is removed by decanting and the wells are washed once with PBS. Anti-BrdU-POD solution (1:100 dilution in PBS, 1% BSA) is added (100 μl/well) and the plate is incubated for 90 minutes at room temperature on a plate shaker. • (8) The antibody conjugate is thoroughly removed by decanting and rinsing the wells 5 times with PBS, and the plate is dried by inverting and tapping on a paper towel. • (9) TMB substrate solution is added (100 μl/well) and incubated for 20 minutes at room temperature on a plate shaker until color development is sufficient for photometric detection. • (10) The absorbance of the samples are measured at 410 nm (in “dual wavelength” mode with a filter reading at 490 nm, as a reference wavelength) on a Dynatech ELISA plate reader.
For orientation: Dividing cells build labelled thymidine or BrdU into new DNA.
With `COc1cc(/C=C2/C(=O)Nc3ccccc32)c(-c2ccc3ccccc3c2)cc1OC` [Example 62, 3-(4,5-Dimethoxy-2-naphthalen-2-ylbenzylidene)-1,3-dihydroindol-2-one], the IC50 is 28.8 µM. On the same count and under the same terms, the figure for `CC(C)c1cc(/C=C2/C(=O)Nc3ccc(Br)cc32)cc(C(C)C)c1OCCN1CCOCC1` [Example 57, 5-Bromo-3-[3,5-diisopropyl-4-(2-morpholin-4-ylethoxy)benzylidene]-1,3-dihydroindol-2-one] is 9.6 µM; for `COc1cccc(-c2cc(OC)c(OC)cc2/C=C2/C(=O)Nc3ccc(Cl)cc32)c1` [Example 61, 5-Chloro-3-(4,5-3′-Trimethoxybiphenyl-2-ylmethylene)-1,3-dihydroindol-2-one] it is above 50 µM.

For the compound `CC(=O)Nc1ccc2c(c1)NC(=O)/C2=C/c1ccc(OCCN2CCOCC2)c(C2CCCCC2)c1` [Example 16, N-{3-[3-Cyclohexyl-4-(2-morpholin-4-ylethoxy)-benzylidene]-2-oxo-2,3-dihydro-1H-indol-6-yl}-acetamide], the IC50 worked out at 4.2 µM.

On to `COc1ccc(/C=C2/C(=O)Nc3ccc(Cl)cc32)cc1-c1cccnc1` [Example 60], for which the 50% inhibitory concentration (IC50) was 40 µM. Same read-out and setting: the figure for `COc1cc(/C=C2/C(=O)Nc3ccccc32)c(-c2cccs2)cc1OC` [Example 39, 3-(4,5-Dimethoxy-2-thiophen-2-ylbenzylidene)-1,3-dihydroindol-2-one] is 5.4 µM; for `COc1ccc(/C=C2/C(=O)Nc3cc(NC(C)=O)ccc32)cc1-c1ccsc1` [Example 18, N-[3-(4-Methoxy-3-thiophene-3-ylbenzylidene)-2-oxo-2,3-dihydro-1H-indol-6-yl]-acetamide] it is above 50 µM; for `COc1c(C(C)C)cc(/C=C2/C(=O)Nc3ccc(C(C)=O)cc32)cc1C(C)C` [Example 5, 5-Acetyl-3-(3,5-diisopropyl-4-methoxybenzylidene)-1,3dihydroindol-2-one] it is 10.5 µM.

For the compound `CC(=O)Nc1ccc2c(c1)NC(=O)/C2=C/c1ccc(OCCN2CCOCC2)c(-c2ccsc2)c1` [Example 50, N-{3-[4-(2-Morpholin-4-ylethoxy)-3-thiophen-3-ylbenzylidene]-2-oxo-2,3-dihydro-1H-indol-6-yl}-acetamide], the IC50 amounted to 31.1 µM. The same measure, in the same setting: the result for `COc1ccc(C=C2C(=O)Nc3ccccc32)cc1-c1cccc(NC(C)=O)c1` [Example 29, N-[2′-Methoxy-5′-(2-oxo-1,2-dihydroindol-3-ylidenemethyl)-biphenyl-3-yl]-acetamide] reads 8.1 µM; that for `COc1ccc(/C=C2/C(=O)Nc3ccc(Br)cc32)cc1-c1ccccc1` [Example 13, 5-Bromo-3-(6-methoxybiphenyl-3-ylmethylene)-1,3-dihydroindol-2-one], 9 µM; that for `COc1ccc(C=C2C(=O)Nc3cc(NC(C)=O)ccc32)cc1-c1cccc(NC(C)=O)c1` (mixture of isomers) [Example 63, N-[3-(3′-Acetylamino-6-methoxybiphenyl-3-ylmethylene)-2-oxo-2,3-dihydro-1H-indol-6-yl]-acetamide], 20.4 µM. Still for that read-out and setting: the figure for `COc1ccc(/C=C2/C(=O)Nc3ccccc32)cc1C1CCCC1` [Example 10, 3-(3-Cyclopentyl-4-methoxybenzylidene)-1,3-dihydroindol-2-one] is 14.1 µM. Turning to `COc1c(C(C)C)cc(/C=C2/C(=O)Nc3cc(NC(C)=O)ccc32)cc1C(C)C` [Example 3, N-[3-(3,5-Diisopropyl-4-methoxybenzylidene)-2-oxo-2,3-dihydro-1H-indol-6-yl]-acetamide], the IC50 came to 9.1 µM. On the same count and under the same terms, the result for `CC1(C)CCc2cc(/C=C3/C(=O)Nc4ccc(Cl)cc43)ccc2O1` [Example 15, 5-Chloro-3-(2,2-dimethyl-chroman-6-ylmethylene)-1,3-dihydroindol-2-one] reads 4.4 µM.

Turning to `COC(=O)c1ccc2c(c1)/C(=C\c1cc(C(C)C)c(OC)c(C(C)C)c1)C(=O)N2` [Example 6, 3-(3,5-Diisopropyl-4-methoxybenzylidene)-2-oxo-2,3-dihydro-1H-indole-5-carboxylic acid methyl ester], the IC50 stood at 4.7 µM.

In the case of `COc1ccc(/C=C2/C(=O)Nc3ccc(Cl)cc32)cc1-c1cccs1` [Example 59, 5-chloro-3-(4-Methoxy-3-thiophen-2-ylbenzylidene)-1,3-dihydroindol-2-one], the IC50 amounted to 14.4 µM. The same measure, in the same setting: the result for `COc1cc(C)c(C=C2C(=O)Nc3ccc(Cl)cc32)cc1C(C)C` [Example 9, 5-Chloro-3-(5-isopropyl-4-methoxy-2-methylbenzylidene)-1,3-dihydroindol-2-one] reads 4.5 µM; that for `COc1ccc(/C=C2/C(=O)Nc3ccccc32)cc1C1CCCCC1` [Example 12, 3-(3-Cyclohexyl-4-methoxybenzylidene)-1,3-dihydroindol-2-one], 31.9 µM. Same read-out and setting: the result for `COc1ccc(/C=C2/C(=O)Nc3cc(NC(C)=O)ccc32)cc1-c1cccs1` [Example 31, N-[3-(4-Methoxy-3-thiophen-2-ylbenzylidene)-2-oxo-2,3-dihydro-1H-indol-6-yl]-acetamide] reads 28.7 µM; that for `CC(C)c1cc(/C=C2/C(=O)Nc3ccc(Cl)cc32)cc(C(C)C)c1OCCN1CCOCC1` [Example 24, 5-chloro-3-[3,5-diisopropyl-4-(2-morpholin-4-ylethoxy)-benzylidene]-1,3-dihydroindol-2-one], 7.1 µM.
